# Several values for one entry are separate records, joined by “and”; a condition that tells them apart may be missing. Equal entries are not always repeated. Where two headings read alike, the source gives them in different places.
# Tests used:
# M. bovis BCG [1] = conditions: 2x MIC90 over 24 h
# M. bovis BCG [2] = assay type: cell-based, Mycobacterium bovis BCG; conditions: luminescence normalized against CFU
# HepG2 = test: Cytotoxicity in HepG2 cells; assay type: cell-based, human; conditions: Homo sapiens, HepG2; 48 h, growth suppressed by 50% vs untreated
# Protocol: (§1) To each well in a 96-well plate, 50,000 cells in 100 μL media were seeded. Vero E6 and HepG2 cells were incubated overnight in DMEM for cell adherence at 37°C and 5% CO2. The media was removed from the wells and 100 μL solution made up of fresh DMEM media (99 μL) and the test compound (1 μL from a DMSO stock solution that was […] more concentrated than the final concentration in the well) was then added to each well. DMSO content of each well was consistently kept at 0.5 %v/v. Treated plates were incubated for 48 h (5% CO2, 37°C), after which 10 μL of Celltitre 96 Aqueous One Solution was added to each well, without removal of media, and incubated for a further 3 h. Subsequently, absorbance readings were taken at 490 nm on a Tecan GENios Microplate Reader.
# (§2) Cell viability was determined from the expression: Cellviability(%)={[Absorbance(cells+cpd)−Absorbance(cpd)]/[Absorbance(cells+vc)−Absorbance(vc)]}×100% where Absorbance (cells + cpd) = absorbance of wells containing cells and test compound in vehicle (media +0.5% DMSO); Absorbance (cpd) = absorbance of wells containing test compound in vehicle without cells (compound control); Absorbance (cells + vc) = absorbance of wells containing cells in vehicle (vc) only (untreated cells); Absorbance (vc) = absorbance of wells containing vehicle without cells (vehicle control). The percentage viability readings were plotted against log(concentration) on GraphPad Prism (Version 7.0, San Diego, CA) to give a sigmoidal curve, from which IC50, defined as the concentration of the compound that reduced cell viability by 50%, was obtained. At least 3 separate determinations were carried out.
# M. bovis BCG [3] = test: microbe, parasite or virus in culture; assay type: cell-based, Mycobacterium bovis BCG
# Vero E6 = test: Cytotoxicity in Vero E6 cells; assay type: cell-based, African green monkey; conditions: growth suppressed by 50% vs untreated
# Protocol: as §1, §2
# M. bovis BCG [4] = assay type: cell-based, Mycobacterium bovis BCG; conditions: 24 h
# M. bovis BCG [5] = assay type: cell-based, Mycobacterium bovis BCG; conditions: 0.5x to 4x MIC90BCG
# M. bovis BCG [6] = assay type: cell-based, Mycobacterium bovis BCG; conditions: 2xMIC90BCG
# [7] = system: Mab bolletii CCUG 50184-T; test: MIC against Mab bolletii CCUG 50184-T; assay type: cell-based, Mycobacterium abscessus subsp. bolletii; conditions: Mycobacteroides abscessus; for MIC50: CCUG50184, 72 h, 3 days
# Mab abscessus ATCC 19977 = test: MIC against Mab abscessus ATCC 19977; assay type: cell-based, Mycobacterium abscessus subsp. abscessus; conditions: Mycobacteroides abscessus; for MIC50: ATCC19977, 72 h, 3 days
# cat papillary muscle = conditions: cited from earlier work
# Mtb H37Rv = test: MIC by broth microdilution against Mtb H37Rv; assay type: cell-based, Mycobacterium tuberculosis; conditions: Mycobacterium tuberculosis, H37RV, 120 h
# clinical isolates of Mab = test: MIC50 against Mab clinical isolates; assay type: cell-based, Mycobacterium abscessus; conditions: Mycobacteroides abscessus
# M. bovis BCG-pclgR-RFP = assay type: cell-based, Mycobacterium bovis BCG; conditions: 0.25x – 2x MIC90 (controls 10 μM), 24 h
# M. bovis BCG [8] = assay type: cell-based, Mycobacterium bovis BCG; conditions: PhA2 2x–4x MIC90BCG, TDZ 80 μM, 24 h
# [9] = system: nonreplicating M. bovis BCG; assay type: cell-based, Mycobacterium bovis BCG; conditions: 5 days, Wayne model
# Mab abscessus = test: Time-kill kinetics, Mab abscessus; assay type: cell-based, Mycobacterium abscessus subsp. abscessus; conditions: 2xMIC90 (170 μM, 89 μg/mL)
# [10] = system: Mab massiliense CCUG 48898-T; test: MIC against Mab massiliense CCUG 48898-T; assay type: cell-based, Mycobacterium abscessus subsp. massiliense; conditions: Mycobacteroides abscessus; for MIC50: CCUG48898, 72 h, 3 days
# M. bovis BCG [11] = assay type: cell-based, Mycobacterium bovis BCG; conditions: 2x MIC90BCG, 6 h time point, cultures still viable
# M. smegmatis mc2155 = test: MIC against M. smegmatis mc2155; assay type: cell-based, Mycobacterium smegmatis; conditions: Mycolicibacterium smegmatis
# M. bovis BCG [12] = assay type: cell-based, Mycobacterium bovis BCG; conditions: 2x MIC90 (19 μg/mL)
# [13] = 7H9 medium (first value of cell)
# [14] = CA-MHB medium (second value of cell)
structure (smiles),measurement,setting,value
CCCCCCCCC(C#N)(CCCN(C)CCc1ccc(OC)c(OC)c1)c1ccc(OC)c(OC)c1 (centres unmarked) [PhA2],membrane permeabilization,M. bovis BCG [1],induced membrane permeabilization
same,ATP level,"M. bovis BCG [2]; 2x MIC90, 12 h",73%
same,ATP level,"M. bovis BCG [2]; 2x MIC90, 48 h",27%
same,IC50,HepG2,29 µM
same,MIC90 BCG,M. bovis BCG [3]; M. bovis BCG,9 µg/mL
same,MIC50,"M. bovis BCG [3]; M. bovis BCG, broth dilution, growth reduced by 50% vs untreated",10 µM
same,MIC50,"M. bovis BCG [3]; Mycobacterium tuberculosis variant bovis BCG, BCG, 120 h, read-out: MIC50 BCG With Glycerol, 7H9 broth with glycerol, 5 days",10 µM
same,MIC50,"M. bovis BCG [3]; Mycobacterium tuberculosis variant bovis BCG, BCG, 120 h, read-out: MIC50 BCG Without Glycerol, 7H9 broth without glycerol, 5 days",22 µM
same,MIC50,"M. bovis BCG [3]; Mycobacterium tuberculosis variant bovis BCG, BCG, M. bovis BCG, broth dilution, growth reduced by 50% vs untreated",10 to 16 µM
same,MIC90,"M. bovis BCG [3]; Mycobacterium tuberculosis variant bovis BCG, BCG, M. bovis BCG, broth dilution, growth reduced by 90% vs untreated",18 µM
same,MIC50,"M. bovis BCG [3]; Mycobacterium tuberculosis variant bovis BCG, BCG, read-out: M. bovis BCG MIC50 (Table S4)",10 µM
same,MIC90,"M. bovis BCG [3]; Mycobacterium tuberculosis variant bovis BCG, BCG, read-out: M. bovis BCG MIC90 (Table S4)",18 µM
same,MIC90,"M. bovis BCG [3]; Mycobacterium tuberculosis variant bovis BCG, BCG, read-out: MIC90 (Table S1), M. bovis BCG, broth dilution",18 µM
same,MIC90,"M. bovis BCG [3]; Mycobacterium tuberculosis variant bovis BCG, BCG, read-out: MIC90 BCG, M. bovis BCG",9.4 µg/mL
same,IC50,Vero E6; 48 h,28 µM
same,IC50,"Vero E6; Chlorocebus sabaeus, Vero C1008, 48 h",28 to 29 µM
same,methylene blue decolorization (O2 uptake),M. bovis BCG [4]; 0.5x and 1x MIC90BCG,Decolorization (active O2 uptake)
same,methylene blue decolorization (O2 uptake),M. bovis BCG [4]; 2x and 4x MIC90BCG,No decolorization
same,formazan formation from MTS,M. bovis BCG [5],dose dependent reduction in formazan
same,reduction of CFUs,M. bovis BCG [6]; 21-day time point,10^5 fold
same,regrowth in time-kill curve,M. bovis BCG [6]; 21 days,no rebound in growth
same,MIC90,"[7]; CCUG50184, 7H9 broth (first value)",95 µM
same,MIC50,[7]; [13],62 µM
same,MIC50,[7]; [14],16 µM
same,MIC90,"[7]; CCUG50184, camH broth (second value)",27 µM
same,MIC90,"Mab abscessus ATCC 19977; ATCC19977, 7H9 broth (first value), read-out: MIC90 Mab abscessus ATCC 19977",85 µM
same,MIC50,Mab abscessus ATCC 19977; [13],54 µM
same,MIC50,Mab abscessus ATCC 19977; [14],19 µM
same,MIC90,"Mab abscessus ATCC 19977; ATCC19977, Mab abscessus, read-out: MIC90 abscessus",85 µM and 45 µg/mL
same,MIC90,"Mab abscessus ATCC 19977; ATCC19977, camH broth (second value), read-out: MIC90 Mab abscessus ATCC 19977",26 µM
same,ED50 (concentration to reduce maximal contractility of the papillary muscle by 50%),cat papillary muscle,130 µM
same,MIC50,Mtb H37Rv; read-out: MIC50 Mtb H37Rv,17 µM
same,MIC90,"Mtb H37Rv; second value of cell MIC50/MIC90, incubation 5 days, read-out: MIC90 Mtb H37Rv",25 µM
same,MIC50,clinical isolates of Mab; read-out: MIC50 seven Mab clinical isolates,22 to 39 µM
same,MIC50,"clinical isolates of Mab; Mab clinical isolate M9, 7H9 broth, read-out: MIC50 M9",26.5 µM
same,MIC50,"clinical isolates of Mab; Mab clinical isolate M111, 7H9 broth, read-out: MIC50 M111",24 µM
same,MIC50,"clinical isolates of Mab; Mab clinical isolate M232, 7H9 broth, read-out: MIC50 M232",22 µM
same,MIC50,"clinical isolates of Mab; Mab clinical isolate M337, 7H9 broth, read-out: MIC50 M337",25 µM
same,MIC50,"clinical isolates of Mab; Mab clinical isolate M404, 7H9 broth, read-out: MIC50 M404",26.5 µM
same,MIC50,"clinical isolates of Mab; Mab clinical isolate M422, 7H9 broth, read-out: MIC50 M422",23 µM
same,MIC50,"clinical isolates of Mab; Mab clinical isolate M506, 7H9 broth, read-out: MIC50 M506",23.5 µM
same,MIC50,"clinical isolates of Mab; range over isolates, read-out: MIC50 seven Mab clinical isolates",12 to 21 µg/mL
same,induction of pclgR promoter activity,M. bovis BCG-pclgR-RFP,induced promoter activity in a dose dependent manner
same,NADH/NAD+ ratio,M. bovis BCG [8],higher ratios
same,kill of hypoxic M. bovis BCG,[9]; 2x MIC90BCG,resisted killing
same,kill of hypoxic M. bovis BCG,[9]; 4x MIC90BCG,10^3 fold
same,reduction of CFUs,Mab abscessus,10^5 fold
same,MIC90,"[10]; CCUG48898, 7H9 broth (first value)",91 µM
same,MIC50,[10]; [13],61 µM
same,MIC50,[10]; [14],11 µM
same,MIC90,"[10]; CCUG48898, camH broth (second value)",28 µM
same,membrane depolarization,M. bovis BCG [11],depolarization was evident
same,MIC50,"M. smegmatis mc2155; MC2155, 24 h, incubation 1 day, read-out: M. smegmatis mc2155 MIC50 (Table S4)",41 µM
same,MIC90,"M. smegmatis mc2155; MC2155, 24 h, incubation 1 day, read-out: M. smegmatis mc2155 MIC90 (Table S4)",58 µM
same,MIC90,"M. smegmatis mc2155; MC2155, read-out: MIC90 M. smegmatis",52.5 µM
same,oxygen consumption rate,M. bovis BCG [12],uptake was reduced to the basal level

# — paper PMC12281142, “A potent phenylalkylamine disrupts mycobacterial membrane bioenergetics and augments bactericidal activity of bedaquiline” (iScience, 2025)
